Source: article PMC10706087, “The Subtype Selectivity in Search of Potent Hypotensive Agents among 5,5-Dimethylhydantoin Derived α1-Adrenoceptors Antagonists” (International Journal of Molecular Sciences, 2023)
pIC50, pKi: −log10 of the molar value. Where a name gives a salt, the structure may show the parent alone.

Columns and labels:
[1] = target: α1-adrenoceptors (α1-ARs), rat cerebral cortex; assay: Radioligand binding assay with [3H]-prazosin, affinity for α1-ARs; conditions: three independent experiments in duplicates, read-out: α1-adrenoceptor affinity Ki
Protocol: In the first step, all synthesized compounds (1–15) were tested in vitro for their affinity for α1-ARs on rat cerebral cortex by the radioligand binding assay using [^3H]-prazosin as a specific radioligand.
The affinity for α1-ARs was determined by radioligand binding assay on rat cerebral cortex using [3H]-prazosin as a specific radioligand. The brains were homogenized in 20 volumes of an ice-cold 50 mM Tris-HCl buffer (pH 7.6) and were centrifuged (MPW Med. Instruments, Warsaw, Poland) at 20,000× g for 20 min (0–4 °C). The cell pellet was resuspended in the Tris-HCl buffer and centrifuged again. Radioligand-binding assay was performed in plates (MultiScreen/Millipore, Burlington, MA, USA). The final incubation mixture (final volume 300 μL) consisted of 240 μL of the membrane suspension, 30 μL of [3H]-Prazosin (0.2 nM) solution, and 30 μL of the buffer containing seven to eight concentrations (10^−11 to 10^−4 M) of the tested compounds. For measuring the unspecific binding, phentolamine, 10 μM (in the case of [3H]-Prazosin) was applied. The incubation was terminated by rapid filtration over glass fiber filters (Whatman GF/C, Sigma-Aldrich) using a vacuum manifold (Millipore). The filters were then washed twice with the assay buffer and placed in scintillation vials with a liquid-scintillation cocktail. Radioactivity was measured in a WALLAC 1409 DSA liquid-scintillation counter (BioSurplus, San Diego, CA, USA).
(§1) All statistics were performed using GraphPad Prism, Version 6.0 (GraphPad Software, San Diego, CA, USA). In the radioligand binding study, data were analyzed by a one-site curve-fitting equation, and inhibition constants (Ki) values were calculated via the Cheng-Prusoff equation [63]. In functional studies, data were analyzed using a sigmoidal dose-response (variable slope) equation. Arterial blood pressure data were analyzed using a two-way ANOVA with Sidak’s post-hoc test for multiple comparisons. A p < 0.05 was considered statistically significant.

[2] = target: T1, human adrenergic receptor α1A (Homo sapiens, UniProt P35348); assay: Intrinsic activity, aequorin luminescence functional assay at α1A-AR; type: cell-based; conditions: for α1A-AR Profile: agonist/antagonist profile; for pIC50: cells expressing aequorin and human α1A, against phenylephrine, means of three independent experiments in duplicates; for Selectivity Ratio α1B/α1A: selectivity for α1A-AR (IC50(α1B-AR)/IC50(α1A-AR))
T1 sequence (P35348 1-466): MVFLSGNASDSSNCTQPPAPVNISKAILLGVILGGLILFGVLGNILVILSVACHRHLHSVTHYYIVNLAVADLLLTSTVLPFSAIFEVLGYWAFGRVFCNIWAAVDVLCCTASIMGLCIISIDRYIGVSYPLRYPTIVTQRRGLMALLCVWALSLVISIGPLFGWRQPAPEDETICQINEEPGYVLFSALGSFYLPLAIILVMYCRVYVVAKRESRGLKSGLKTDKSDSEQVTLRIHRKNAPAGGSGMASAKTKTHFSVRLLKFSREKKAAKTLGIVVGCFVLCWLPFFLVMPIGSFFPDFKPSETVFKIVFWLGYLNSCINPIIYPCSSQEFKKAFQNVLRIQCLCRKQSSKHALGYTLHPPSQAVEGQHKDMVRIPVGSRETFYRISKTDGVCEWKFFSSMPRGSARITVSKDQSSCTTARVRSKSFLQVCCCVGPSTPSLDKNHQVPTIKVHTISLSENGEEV
Protocol: (§2) The subtype selectivity for α1A and α1B was calculated as IC50(α1B-AR)/IC50(α1A-AR) and IC50(α1A-AR)/IC50(α1B-AR) ratio, respectively.
(§3) Intrinsic activity at the α1-AR subtypes studies were performed using the cells expressing mitochondrially-targeted aequorin and one of the human adrenergic receptor α1A or α1B (PerkinElmer, Boston, MA, USA), according to the manufacturer’s instructions. For measurement, frozen cells were thawed and re-suspended in 10 mL of assay buffer containing 5 μM “Coelenterazine h”. This cell suspension was put in a 10 mL Falcon tube, fixed onto a rotating heel, and incubated overnight at rt in the dark (8 rpm; 45° angle). Cells were diluted with Assay Buffer to 5000 cells/20 μL. […] The light emitted was recorded for 20 s. Cells with antagonists were incubated for 15 min at room temperature. […] Luminescence was measured using the multidetection microplate reader (POLARstar Omega, BMG LABTECH, Ortenberg, Germany).
as §1

[3] = target: T2, human adrenergic receptor α1B (Homo sapiens, UniProt P35368); assay: Intrinsic activity, aequorin luminescence functional assay at α1B-AR; type: cell-based; conditions: for α1B-AR Profile: agonist/antagonist profile; for pIC50: cells expressing aequorin and human α1B, against phenylephrine, means of three independent experiments in duplicates; for Selectivity Ratio α1A/α1B: selectivity for α1B-AR (IC50(α1A-AR)/IC50(α1B-AR))
T2 sequence (P35368 1-520): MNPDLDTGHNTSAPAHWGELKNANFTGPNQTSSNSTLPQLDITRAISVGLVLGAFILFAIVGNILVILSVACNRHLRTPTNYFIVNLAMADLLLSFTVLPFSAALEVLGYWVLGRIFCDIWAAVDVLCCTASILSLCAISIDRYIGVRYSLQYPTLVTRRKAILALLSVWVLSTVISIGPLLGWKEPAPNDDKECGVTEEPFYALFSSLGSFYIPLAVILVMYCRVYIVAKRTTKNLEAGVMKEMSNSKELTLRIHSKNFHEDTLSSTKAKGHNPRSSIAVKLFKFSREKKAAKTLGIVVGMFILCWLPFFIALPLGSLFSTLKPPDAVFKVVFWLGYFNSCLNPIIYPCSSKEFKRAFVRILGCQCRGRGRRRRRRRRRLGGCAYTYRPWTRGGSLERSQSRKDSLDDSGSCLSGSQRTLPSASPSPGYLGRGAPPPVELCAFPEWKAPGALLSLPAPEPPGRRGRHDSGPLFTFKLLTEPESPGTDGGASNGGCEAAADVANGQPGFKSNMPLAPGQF
Protocol: as §2, §3, §1

[4] = system: arterial blood pressure of normotensive Wistar rats; assay: Influence on blood pressure in normotensive anesthetized rats after i.v. administration; type: in vivo, rat; conditions: 2.0 mg/kg i.v., mean, n = 6
Protocol: In the next step, the hypotensive activity of novel compounds 1–3, 5–9, and 11–14 was determined after i.v. administration to normotensive anesthetized rats. All results are shown in Supplementary Table S1.
The normotensive rats were anesthetized with thiopental (75 mg/kg) by intraperitoneal injection (i.p.). The left carotid artery was cannulated with a polyethylene tub filled with heparin in saline to facilitate pressure measurements using a PowerLab Apparatus (ADInstruments, Sydney, Australia). Blood pressure was measured immediately before administration of the tested compounds or vehicle—time 0 min (initial blood pressure) and 60 min thereafter. Initial blood pressure before administration of the tested chemicals in all experimental groups was similar. The tested compounds were dissolved in a specific vehicle: ethyl alcohol 5% − kolliphor 5% − water 90%. All tested chemicals were administrated intravenously (i.v.) at a constant volume of 1 mL/kg after 20 min of stabilization period. The compounds were tested at a starting dose of 2 mg/kg. If the hypotensive activity was found, the dose was reduced by half. The dosing was continued until the hypotensive effects disappeared. Urapidil was used as a reference compound.
as §1

[5] = 0 min (initial, before administration)

| pKi [1] | α1A-AR Profile [2] | pIC50 [2] | Selectivity Ratio α1B/α1A [2] | α1B-AR Profile [3] | pIC50 [3] | Selectivity Ratio α1A/α1B [3] | SMILES | Diastolic blood pressure [4, 5] | Systolic blood pressure [4, 5] | Diastolic blood pressure ([4]; 5 min) | Systolic blood pressure ([4]; 5 min) | Diastolic blood pressure ([4]; 10 min) | Systolic blood pressure ([4]; 10 min) | Diastolic blood pressure ([4]; 20 min) | Systolic blood pressure ([4]; 20 min) | Diastolic blood pressure ([4]; 30 min) | Systolic blood pressure ([4]; 30 min) | Diastolic blood pressure ([4]; 40 min) | Systolic blood pressure ([4]; 40 min) | Diastolic blood pressure ([4]; 50 min) | other results |
| --- | --- | --- | --- | --- | --- | --- | --- | --- | --- | --- | --- | --- | --- | --- | --- | --- | --- | --- | --- | --- | --- |
| 6.59 |  |  |  |  |  |  | CC1(C)C(=O)N(Cc2ccc(Cl)cc2Cl)C(=O)N1CCCCCCN1CCN(c2ccc(Cl)c(Cl)c2)CC1.Cl [Compound 4, 3-(2,4-dichlorobenzyl)-1-(6-(4-(3,4-dichlorophenyl)piperazin-1-yl)hexyl)-5,5-dimethylimidazolidine-2,4-dione hydrochloride] |  |  |  |  |  |  |  |  |  |  |  |  |  | melting point: 154 to 156 °C |
| 7.00 | Antagonist | 5.85 | 0.34 | Antagonist | 6.32 | 2.92 | CC1(C)C(=O)N(Cc2ccc(Cl)cc2Cl)C(=O)N1CC(O)CN1CCN(c2ccccc2F)CC1 (stereo not drawn) [Compound 7] | 103.2 | 137.8 | 91.5 | 125.3 | 91.0 | 124.3 | 93.0 | 121.8 | 92.0 | 123.8 | 94.3 | 123.7 | 93.2 | Systolic blood pressure ([4]; 50 min): 122.7; Diastolic blood pressure ([4]; 60 min): 91.3; Systolic blood pressure ([4]; 60 min): 121.5 |
| 7.36 | Antagonist | 6.09 | 0.21 | Antagonist | 6.77 | 4.79 | CC1(C)C(=O)N(Cc2ccc(Cl)cc2Cl)C(=O)N1CC(O)CN1CCN(c2ccc(F)cc2)CC1 (stereo not drawn) [Compound 8] | 96.7 | 129.2 | 87.8 | 121.5 | 89.0 | 120.5 | 88.2 | 120.0 | 86.5 | 120.2 | 84.7 | 119.5 | 85.5 | Systolic blood pressure ([4]; 50 min): 120.0; Diastolic blood pressure ([4]; 60 min): 84.3; Systolic blood pressure ([4]; 60 min): 119.0 |
| 7.38 | Antagonist | 6.79 | 0.91 | Antagonist | 6.83 | 1.10 | CC1(C)C(=O)N(Cc2ccc(Cl)cc2Cl)C(=O)N1CC(O)CN1CCN(c2ccc(F)cc2F)CC1 (stereo not drawn) [Compound 9] | 100.3 | 135.2 | 98.2 | 133.3 | 93.5 | 127.0 | 90.8 | 125.0 | 93.2 | 128.2 | 92.0 | 128.2 | 90.3 | Systolic blood pressure ([4]; 50 min): 127.2; Diastolic blood pressure ([4]; 60 min): 87.3; Systolic blood pressure ([4]; 60 min): 122.0 |
| 6.11 |  |  |  |  |  |  | CC1(C)C(=O)N(Cc2ccc(Cl)cc2Cl)C(=O)N1CC(O)CN1CCN(c2ccc(Cl)c(Cl)c2)CC1.Cl (stereo not drawn) [Compound 10, 3-(2,4-dichlorobenzyl)-1-(3-(4-(3,4-dichlorophenyl)piperazin-1-yl)-2-hydroxypropyl)-5,5-dimethylimidazolidine-2,4-dione hydrochloride] |  |  |  |  |  |  |  |  |  |  |  |  |  | melting point: 223 to 225 °C |
| 5.61 |  |  |  |  |  |  | CC1(C)C(=O)N(Cc2ccc(Cl)cc2Cl)C(=O)N1CC(O)CN1CCN(C(c2ccccc2)c2ccccc2)CC1 (stereo not drawn) [Compound 15] |  |  |  |  |  |  |  |  |  |  |  |  |  |  |
|  | Agonist |  |  | Agonist |  |  | CNC[C@H](O)c1cccc(O)c1 [Phenylephrine, phenylephrine, reference compound] |  |  |  |  |  |  |  |  |  |  |  |  |  |  |
|  | Antagonist |  |  | Antagonist | 9.32 |  | CCOc1ccccc1OCCN[C@H](C)Cc1ccc(OC)c(S(N)(=O)=O)c1 [Tamsulosin, tamsulosin hydrochloride, reference compound] |  |  |  |  |  |  |  |  |  |  |  |  |  |  |
|  | Antagonist |  |  | Antagonist |  |  | COc1cc2nc(N3CCN(C(=O)C4CCCO4)CC3)nc(N)c2cc1OC (stereo not drawn) [Terazosin, terazosin hydrochloride, reference compound] |  |  |  |  |  |  |  |  |  |  |  |  |  |  |
